# According to patent US5135935A, “Squalene synthetase inhibitors” (Merck & Co., Inc., priority 1991, dated 1992):
# Biological target: T1, Squalene Synthetase (Rattus norvegicus, UniProt Q02769)
# T1 construct: from tissue; host or cells: liver microsomes of male Charles River CD rats fed 0.1% lovastatin
# T1 sequence (Q02769 1-416): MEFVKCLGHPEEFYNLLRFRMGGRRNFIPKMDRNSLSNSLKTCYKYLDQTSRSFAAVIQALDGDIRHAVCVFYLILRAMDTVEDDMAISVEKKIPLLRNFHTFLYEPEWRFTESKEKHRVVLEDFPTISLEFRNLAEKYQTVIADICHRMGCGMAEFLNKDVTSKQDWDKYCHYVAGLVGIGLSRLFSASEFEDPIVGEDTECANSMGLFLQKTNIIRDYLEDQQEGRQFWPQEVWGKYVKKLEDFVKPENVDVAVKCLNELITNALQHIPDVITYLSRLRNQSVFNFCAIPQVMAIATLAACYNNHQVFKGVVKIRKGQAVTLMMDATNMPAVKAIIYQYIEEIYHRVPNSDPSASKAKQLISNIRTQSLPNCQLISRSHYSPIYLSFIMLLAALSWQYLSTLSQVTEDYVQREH
# Assay: Squalene synthetase assay, rat liver microsomes, [4-14C]farnesyl pyrophosphate
# Type: biochemical
# Conditions: salt form as tabulated; for IC50: 30° C., 20 minutes; for inhibition at 0.3 µg/mL: conc. 0.3 μg/mL
# Method: The intrinsic squalene synthetase inhibitory activity of representative compounds of this invention was measured by the standard in vitro protocol described below:
# Male, Charles River CD rats (120 to 150 g) were fed a diet containing 0.1% lovastatin for 4 days. The livers from these rats were homogenized in 5 volumes (mL/g) of ice cold 50 mM HEPES (4-(2-hydroxyethyl)-1-piperazine-ethanesulfonic acid), 5 mM EDTA (ethylenediaminetetraacetic acid) pH 7.5 with a Potter-Elvehjem type tissue grinder. The homogenate was centrifuged twice at 20,000×g for 15 minutes at 4° C., discarding the pellet each time. The supernatant was then centrifuged at 100,000×g for 1 hour at 4° C. The resulting microsomal pellet was resuspended in a volume of the above homogenizing buffer equal to one-fifth the volume of the original homogenate. This microsomal preparation has a protein concentration of about 7 mg/mL. The microsomal suspensions were stored in aliquots at -70° C. Squalene synthetase activity in these aliquots is stable for at least several months.
# Prenyl transferase was purified to use in the enzymatic synthesis of radiolabelled farnesyl pyrophosphate. Prenyl transferase was assayed by the method of Rilling (Methods in Enzymology 110, 125-129 (1985)) and a unit of activity is defined as the amount of enzyme that will produce 1 μmole of farnesyl pyrophosphate per minute at 30° C. in the standard assay.
# The livers of 23 forty-day old male rats that had been fed 5% cholestyramine plus 0.1% lovastatin were homogenized in a Waring blender in 1 liter of 10 mM mercaptoethanol, 2 mM EDTA, 25 μM leupeptin, 0.005% phenylmethyl sulfonyl fluoride pH 7.0 containing 0.1 trypsin inhibitor units of aprotinin/mL. The homogenate was centrifuged at 20,000×g for 20 minutes. The supernatant was adjusted to pH 5.5. with 6N HOAc and centrifuged at 100,000×g for 1 hour. This supernatant was adjusted to pH 7.0 with 3N KOH and a 35-60% ammonium sulfate fraction taken. The 60% pellet was redissolved in 60 mL of 10 mM potassium phosphate, 10 mM mercaptoethanol, 1 mM EDTA pH 7.0 (Buffer A) and dialyzed against two 1 liter changes of Buffer A. This dialyzed fraction was applied to a 12.5×5 cm column of DEAE-sepharose 4B equilibrated with Buffer A. The column was washed with 700 mL of Buffer A and a 1 liter gradient from Buffer A to 100 mM potassium phosphate, 10 mM mercaptoethanol, 1 mM EDTA pH 7.0. Fractions having a specific activity greater than 0.20 units/mg were combined, solid ammonium sulfate was added to bring to 60% saturation and pelleted. The pellet was dissolved in 8 mL of 10 mM Tris, 10 mM β-mercaptoethanol pH 7.0 (Buffer B). The redissolved pellet was taken to 60% saturation with ammonium sulfate by adding 1.5 volumes of saturated ammonium sulfate in Buffer B. This ammonium sulfate suspension contained 3.5 units/mL with a specific activity of 0.23 units/mg and was free of isopentenyl pyrophosphate isomerase activity. This ammonium sulfate suspension was used for the synthesis of [4-^14 C]farnesyl-pyrophosphate and its activity was stable stored at 4° C. for at least 6 months.
# The solvent (ethanol: 0.15N NH4 OH, 1:1) was removed from 55 μCi of [4-^14 C]isopentenyl pyrophosphate(47.9 μCi/μmole) by rotary evaporation. Six hundred microliters of 100 mM Tris, 10 mM MgCl2, 4 mM dithiothreitol pH 7.5 was added and the solution was transferred to a 1.5 ml Eppendorf centrifuge tube. Geranyl-pyrophosphate, 250 μL of a 20 mM solution, and 50 μL of the ammonium sulfate suspension of prenyl transferase were added to initiate the reaction. This incubation contained 5 μmoles of geranyl pyrophosphate, 1.15 μmoles of isopentenyl pyrophosphate, 6 μmoles of MgCl2 of 0.18 units of prenyl transferase in a volume of 900 μL. The incubation was conducted at 37° C. During the incubation, the mix turned cloudy white as the newly formed magnesium complex of farnesyl pyrophosphate precipitated out of solution. […]
Structure (SMILES),IC50 (in presence of 1 mM PPi),inhibition at 0.3 µg/mL (in presence of 1 mM PPi),IC50 (in absence of PPi)
"c1ccc2ncc(-c3noc(C4CN5CCC4CC5)n3)cc2c1 (centres unmarked) [Compound 36, 3-[3-(3-quinolyl)-1,2,4-oxadiazol-5-yl]-1-azabicyclo[2.2.2]octane]",42 nM,97%,–
"OC(c1ccccc1)(c1ccccc1)c1noc(C2CN3CCC2CC3)n1 (centres unmarked) [Compound 34, 3-[3-(1,1-diphenyl-1-hydroxymethyl)-1,2,4-oxadiazol-5-yl]-quinuclidine]",–,60%,–
"Cc1ccc2c(c1)c(-c1noc(C3CN4CCC3CC4)n1)cn2C (centres unmarked) [Compound 19, 3-[3-(1,5-dimethyl-1H-indol-3-yl)-1,2,4-oxadiazol-5-yl]-1-azabicyclo[2.2.2]octane]",58 nM,96%,–
"c1ccc2c(-c3noc(C4CN5CCC4CC5)n3)c[nH]c2c1 (centres unmarked) [Compound 35, 3-[3-(1H-indol-3-yl)-1,2,4-oxadiazol-5-yl]-1-azabicyclo[2.2.2]octane]",23 nM,98%,1900 nM
"Oc1cccc(-c2noc(C3CN4CCC3CC4)n2)c1 (centres unmarked) [Compound 32, 3-[5-(1-azabicyclo[2.2.2]oct-3-yl)-1,2,4-oxadiazol-5-yl]-phenol]",–,92%,–
"c1ccc(-c2noc(C3CN4CCC3CC4)n2)cc1 (centres unmarked) [Compound 24, 3-[3-phenyl-1,2,4-oxadiazol-5-yl]-1-azabicyclo[2.2.2]octane]",43 nM,98%,–
"CC(=O)OC(c1ccccc1)c1noc(C2CN3CCC2CC3)n1 (centres unmarked) [Compound 6, 3-[3-(1-acetoxy-1-phenylmethyl)-1,2,4-oxadiazol-5-yl]-quinuclidine]",–,70%,–
"COc1ccccc1-c1noc(C2CN3CCC2CC3)n1 (centres unmarked) [Compound 29, 3-[3-(2-methoxyphenyl)-1,2,4-oxadiazol-5-yl]-1-azabicyclo[2.2.2]octane]",250 nM,–,14000 nM
"COc1ccc(-c2noc(C3CN4CCC3CC4)n2)cc1 (centres unmarked) [Compound 30, 3-[3-(4-methoxyphenyl)-1,2,4-oxadiazol-5-yl]-1-azabicyclo[2.2.2]octane]",–,99%,–
"Cn1c(-c2noc(C3CN4CCC3CC4)n2)cc2ccccc21 (centres unmarked) [Compound 15, 3-[3-(1-methyl-1H-indol-2-yl)-1,2,4-oxadiazol-5-yl]-1-azabicyclo[2.2.2]octane]",20 nM,–,1100 nM
"COc1cccc(-c2noc(C3CN4CCC3CC4)n2)c1 (centres unmarked) [Compound 28, 3-[3-(3-methoxyphenyl)-1,2,4-oxadiazol-5-yl]-1-azabicyclo[2.2.2]octane]",31 nM,99%,2800 nM
"Oc1ccc(-c2noc(C3CN4CCC3CC4)n2)cc1 (centres unmarked) [Compound 33, 4-[5-(1-azabicyclo[2.2.2]oct-3-yl)-1,2,4-oxadiazol-5-yl]-phenol]",–,84%,–
"OC(c1ccccc1)c1noc(C2CN3CCC2CC3)n1 (stereo not drawn) [Compound 7, α-phenyl-5-(1-azabicyclo[2.2.2]oct-3-yl)-1,2,4-oxadiazole-3-methanol]",–,49%,–
"c1cncc(-c2noc(C3CN4CCC3CC4)n2)c1 (centres unmarked) [Compound 26, 3-[3-(3-pyridinyl)-1,2,4-oxadiazol-5-yl]-1-azabicyclo[2.2.2]octane]",660 nM,–,> 10000 nM
"O=C(c1ccccc1)c1noc(C2CN3CCC2CC3)n1 (centres unmarked) [Compound 37, 3-(3-benzoyl-1,2,4-oxadiazol-5-yl)quinuclidine]",–,64%,–
"Oc1ccccc1-c1noc(C2CN3CCC2CC3)n1 (centres unmarked) [Compound 31, 2-[5-(1-azabicyclo[2.2.2]oct-3-yl)-1,2,4-oxadiazol-5-yl]-phenol]",–,90%,–
"Cn1cc(-c2noc(C3CN4CCC3CC4)n2)c2cc(F)ccc21 (centres unmarked) [Compound 4, 3-[3-(5-fluoro-1-methyl-1H-indol-3-yl)-1,2,4-oxadiazol-5-yl]-1-azabicyclo[2.2.2]octane]",–,97%,–
"c1ccc2c(-c3noc(C4CN5CCC4CC5)n3)cccc2c1 (centres unmarked) [Compound 27, 3-[3-(1-naphthalenyl)-1,2,4-oxadiazol-5-yl]-1-azabicyclo[2.2.2]octane]",11 nM,99%,2300 nM
"Cn1cc(-c2noc(C3CN4CCC3CC4)n2)c2ccccc21 (centres unmarked) [Compound 3, 3-[3-(1-methyl-1H-indol-3-yl)-1,2,4-oxadiazol-5-yl]-1-azabicyclo[2.2.2]octane]",28 nM,–,1600 nM
